According to PMC6979384, “Characterization of the plant homeodomain (PHD) reader family for their histone tail interactions” (Epigenetics & Chromatin, 2020):

Experiments:
Test in all cases: Histone peptide microarray
Type in all cases: binding, human
KDM4C (TTP) = conditions: GST-tagged KDM4C (TTP = Tandem Tudor domain + PHD); histone peptide array; arrays performed twice, n of 4
Method in brief: (§1)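 Each reader, produced as a GST fusion and purified, was tested at 0.5 μM on synthetic histone peptides (293 in total) carrying single or combinatorial marks. Intensities averaged over four replicates.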

AIRE (PP) = conditions: GST-tagged AIRE (PP); histone peptide array; arrays performed twice, n of 4
Method in brief: as §1

PHF2 = conditions: GST-tagged PHF2; histone peptide array; arrays performed twice, n of 4
Method in brief: as §1

ING1 = conditions: GST-tagged ING1; histone peptide array; arrays performed twice, n of 4
Method in brief: as §1

ING5 = conditions: GST-tagged ING5; histone peptide array; arrays performed twice, n of 4
Method in brief: as §1

PHF23 = conditions: GST-tagged PHF23; histone peptide array; arrays performed twice, n of 4
Method in brief: as §1

PHF8 = conditions: GST-tagged PHF8; histone peptide array; arrays performed twice, n of 4
Method in brief: as §1

KDM5A (3) = conditions: GST-tagged KDM5A (3); histone peptide array; arrays performed twice, n of 4
Method in brief: as §1

MLL5 = conditions: GST-tagged MLL5; histone peptide array; arrays performed twice, n of 4
Method in brief: as §1

DPF2 (PPC2W2) = conditions: GST-tagged DPF2 (PPC2W2 = Dual PHD + C2W2-type Zn-finger); histone peptide array; arrays performed twice, n of 4
Method in brief: as §1

ING4 = conditions: GST-tagged ING4; histone peptide array; arrays performed twice, n of 4
Method in brief: as §1

SP140L = conditions: GST-tagged SP140L; histone peptide array; arrays performed twice, n of 4
Method in brief: as §1

DIDO1 = conditions: GST-tagged DIDO1; histone peptide array; arrays performed twice, n of 4
Method in brief: as §1

BPTF (PB) = conditions: GST-tagged BPTF (PB = PHD + Bromodomain); histone peptide array; arrays performed twice, n of 4
Method in brief: as §1

TRIM66 (PB) = conditions: GST-tagged TRIM66 (PB = PHD + Bromodomain); histone peptide array; arrays performed twice, n of 4
Method in brief: as §1

MORC3 (CW) = conditions: GST-tagged MORC3 (CW = CW-type Zn-finger); histone peptide array; arrays performed twice, n of 4
Method in brief: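 GST-tagged PHD readers, 0.5 μM, probed on a microarray of 293 synthetic histone peptides carrying single or combinatorial PTMs (optimized Petell protocol). Signals are averaged over 4 replicates and expressed as relative binding.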

KDM5B (1) = conditions: GST-tagged KDM5B (1); histone peptide array; arrays performed twice, n of 4
Method in brief: as §1

KDM5B (3) = conditions: GST-tagged KDM5B (3); histone peptide array; arrays performed twice, n of 4
Method in brief: as §1

KDM5A (1) = conditions: GST-tagged KDM5A (1); histone peptide array; arrays performed twice, n of 4
Method in brief: as §1

KDM7A = conditions: GST-tagged KDM7A; histone peptide array; arrays performed twice, n of 4
Method in brief: as §1

CHD4 (PPCC) = conditions: GST-tagged CHD4 (PPCC = Dual PHD + Dual Chromodomain); histone peptide array; arrays performed twice, n of 4
Method in brief: as §1

CHD5 (PCC) = conditions: GST-tagged CHD5 (PCC = PHD + Dual Chromodomain); histone peptide array; arrays performed twice, n of 4
Method in brief: as §1

PHF21A = conditions: GST-tagged PHF21A; histone peptide array; arrays performed twice, n of 4
Method in brief: as §1

RAG2 = conditions: GST-tagged RAG2; histone peptide array; arrays performed twice, n of 4
Method in brief: as §1

ING3 = conditions: GST-tagged ING3; histone peptide array; arrays performed twice, n of 4
Method in brief: as §1

PHF13 = conditions: GST-tagged PHF13; histone peptide array; arrays performed twice, n of 4
Method in brief: as §1

ING2 = conditions: GST-tagged ING2; histone peptide array; arrays performed twice, n of 4
Method in brief: as §1

BAZ2B = conditions: GST-tagged BAZ2B; histone peptide array; arrays performed twice, n of 4
Method in brief: as §1

TAF3 = conditions: GST-tagged TAF3; histone peptide array; arrays performed twice, n of 4
Method in brief: as §1

CHD5 (PPCC) = conditions: GST-tagged CHD5 (PPCC = Dual PHD + Dual Chromodomain); histone peptide array; arrays performed twice, n of 4
Method in brief: as §1

PHRF1 (RP) = conditions: GST-tagged PHRF1 (RP); histone peptide array; arrays performed twice, n of 4
Method in brief: as §1

## H4K12ac + K16ac + K20me1: H4 11-27
KDM4C (TTP)
  Array Heatmap signal, KDM4C (TTP): 0.4269
AIRE (PP)
  Array Heatmap signal, AIRE (PP): 0.384
PHF2
  Array Heatmap signal, PHF2: 0.5516
ING1
  Array Heatmap signal, ING1: 0.5716
ING5
  Array Heatmap signal, ING5: 0.3345
PHF23
  Array Heatmap signal, PHF23: 0.5291
PHF8
  Array Heatmap signal, PHF8: 0.3408
KDM5A (3)
  Array Heatmap signal, KDM5A (3): 0.4519
MLL5
  Array Heatmap signal, MLL5: 0.5572
DPF2 (PPC2W2)
  Array Heatmap signal, DPF2 (PPC2W2): 0.6625
ING4
  Array Heatmap signal, ING4: 0.4334
SP140L
  Array Heatmap signal, SP140L: 0.3459
DIDO1
  Array Heatmap signal, DIDO1: 0.7187
BPTF (PB)
  Array Heatmap signal, BPTF (PB): 0.3283
TRIM66 (PB)
  Array Heatmap signal, TRIM66 (PB): 0.5407
MORC3 (CW)
  Array Heatmap signal, MORC3 (CW): 0.3309
KDM5B (1)
  Array Heatmap signal, KDM5B (1): 0.5461
KDM5B (3)
  Array Heatmap signal, KDM5B (3): 0.4151
KDM5A (1)
  Array Heatmap signal, KDM5A (1): 0.4176
KDM7A
  Array Heatmap signal, KDM7A: 0.3032
CHD4 (PPCC)
  Array Heatmap signal, CHD4 (PPCC): 0.5474
CHD5 (PCC)
  Array Heatmap signal, CHD5 (PCC): 0.6765
PHF21A
  Array Heatmap signal, PHF21A: 0.4255
RAG2
  Array Heatmap signal, RAG2: 0.2293
ING3
  Array Heatmap signal, ING3: 0.451
PHF13
  Array Heatmap signal, PHF13: 0.5671
ING2
  Array Heatmap signal, ING2: 0.5978
BAZ2B
  Array Heatmap signal, BAZ2B: 0.4211
TAF3
  Array Heatmap signal, TAF3: 0.2511
CHD5 (PPCC)
  Array Heatmap signal, CHD5 (PPCC): 0.5143
PHRF1 (RP)
  Array Heatmap signal, PHRF1 (RP): 0.4296

## H4K12ac + K16ac + K20me2: H4 11-27
KDM4C (TTP)
  Array Heatmap signal, KDM4C (TTP): 0.537
AIRE (PP)
  Array Heatmap signal, AIRE (PP): 0.4913
PHF2
  Array Heatmap signal, PHF2: 0.4604
ING1
  Array Heatmap signal, ING1: 0.5241
ING5
  Array Heatmap signal, ING5: 0.405
PHF23
  Array Heatmap signal, PHF23: 0.5618
PHF8
  Array Heatmap signal, PHF8: 0.3877
KDM5A (3)
  Array Heatmap signal, KDM5A (3): 0.5092
MLL5
  Array Heatmap signal, MLL5: 0.5834
DPF2 (PPC2W2)
  Array Heatmap signal, DPF2 (PPC2W2): 0.6546
ING4
  Array Heatmap signal, ING4: 0.4756
SP140L
  Array Heatmap signal, SP140L: 0.3577
DIDO1
  Array Heatmap signal, DIDO1: 0.7262
BPTF (PB)
  Array Heatmap signal, BPTF (PB): 0.3936
TRIM66 (PB)
  Array Heatmap signal, TRIM66 (PB): 0.6093
MORC3 (CW)
  Array Heatmap signal, MORC3 (CW): 0.4076
KDM5B (1)
  Array Heatmap signal, KDM5B (1): 0.6899
KDM5B (3)
  Array Heatmap signal, KDM5B (3): 0.5172
KDM5A (1)
  Array Heatmap signal, KDM5A (1): 0.4994
KDM7A
  Array Heatmap signal, KDM7A: 0.418
CHD4 (PPCC)
  Array Heatmap signal, CHD4 (PPCC): 0.5676
CHD5 (PCC)
  Array Heatmap signal, CHD5 (PCC): 0.8229
PHF21A
  Array Heatmap signal, PHF21A: 0.4824
RAG2
  Array Heatmap signal, RAG2: 0.281
ING3
  Array Heatmap signal, ING3: 0.5264
PHF13
  Array Heatmap signal, PHF13: 0.6561
ING2
  Array Heatmap signal, ING2: 0.6089
BAZ2B
  Array Heatmap signal, BAZ2B: 0.5022
TAF3
  Array Heatmap signal, TAF3: 0.2922
CHD5 (PPCC)
  Array Heatmap signal, CHD5 (PPCC): 0.6049
PHRF1 (RP)
  Array Heatmap signal, PHRF1 (RP): 0.4498

## H4K12ac + K16ac + K20me3: H4 11-27
KDM4C (TTP)
  Array Heatmap signal, KDM4C (TTP): 0.5508
AIRE (PP)
  Array Heatmap signal, AIRE (PP): 0.5868
PHF2
  Array Heatmap signal, PHF2: 0.4705
ING1
  Array Heatmap signal, ING1: 0.5304
ING5
  Array Heatmap signal, ING5: 0.3933
PHF23
  Array Heatmap signal, PHF23: 0.5129
PHF8
  Array Heatmap signal, PHF8: 0.3563
KDM5A (3)
  Array Heatmap signal, KDM5A (3): 0.4096
MLL5
  Array Heatmap signal, MLL5: 0.5614
DPF2 (PPC2W2)
  Array Heatmap signal, DPF2 (PPC2W2): 0.7109
ING4
  Array Heatmap signal, ING4: 0.5105
SP140L
  Array Heatmap signal, SP140L: 0.368
DIDO1
  Array Heatmap signal, DIDO1: 0.6408
BPTF (PB)
  Array Heatmap signal, BPTF (PB): 0.3647
TRIM66 (PB)
  Array Heatmap signal, TRIM66 (PB): 0.6534
MORC3 (CW)
  Array Heatmap signal, MORC3 (CW): 0.4027
KDM5B (1)
  Array Heatmap signal, KDM5B (1): 0.6527
KDM5B (3)
  Array Heatmap signal, KDM5B (3): 0.5038
KDM5A (1)
  Array Heatmap signal, KDM5A (1): 0.5006
KDM7A
  Array Heatmap signal, KDM7A: 0.4502
CHD4 (PPCC)
  Array Heatmap signal, CHD4 (PPCC): 0.6123
CHD5 (PCC)
  Array Heatmap signal, CHD5 (PCC): 0.9097
PHF21A
  Array Heatmap signal, PHF21A: 0.52
RAG2
  Array Heatmap signal, RAG2: 0.2525
ING3
  Array Heatmap signal, ING3: 0.4869
PHF13
  Array Heatmap signal, PHF13: 0.6523
ING2
  Array Heatmap signal, ING2: 0.5812
BAZ2B
  Array Heatmap signal, BAZ2B: 0.5532
TAF3
  Array Heatmap signal, TAF3: 0.2674
CHD5 (PPCC)
  Array Heatmap signal, CHD5 (PPCC): 0.6012
PHRF1 (RP)
  Array Heatmap signal, PHRF1 (RP): 0.4386
